Earlier results in patent publication US20040265272A1, “Mammalian cell-infecting virus vector encoding epitope-bound beta2m and utilization thereof” (priority 2001, published 2004).

Test system: CTL
Details: HLA-A24- or HLA-A26-restricted peptide; cancer patients

| Substance | CTL induction |
| --- | --- |
| SART-1 690-698: HLA-A24-restricted peptide of the SART-1 antigen (EYRGFTQDF; UniProt O43290 690-698, looked up, fragment) | strongly induced CTL |
| SART-1 736-744: HLA-A26-restricted peptide of the SART-1 antigen (KGSGKMKTE; UniProt O43290 736-744, looked up, fragment) | induced CTL in cancer patients with HLA-A2601, -A2602, or -A2603 |
